Results on 9 compounds are retold here after ChEMBL document CHEMBL1629541, “Synthesis and structure-activity relationships of aza- and diazabiphenyl analogues of the antitubercular drug (6S)-2-nitro-6-{[4-(trifluoromethoxy)benzyl]oxy}-6,7-dihydro-5H-imidazo[2,1-b][1,3]oxazine (PA-824)” (J Med Chem, 2010).

Converted amounts (≈) assume the structure as drawn.

The subject of data set [1] is Mycobacterium tuberculosis. The experiment in a line: microbe, parasite or virus in culture. The conditions noted are these: H37Rv.
Description: Antitubercular activity against Mycobacterium tuberculosis H37Rv by LORA method
Data set [2] in a line: physchem. The conditions noted are these: water, pH 7.
Description: Solubility of the compound in water at pH 7.0 by HPLC
The nature of data set [3]: physchem. The following applies: water, pH 1.
Description: Solubility of the compound in water at pH 1.0 by HPLC
Data set [4] deals with Mycobacterium tuberculosis. The experiment in a line: microbe, parasite or virus in culture. The following applies: H37Rv. The source holds these as a separate data set.
Data set [5] in a line: in vitro. The following applies: CD1, mouse, liver microsomes. In general terms: Liver microsomes are vesicles of endoplasmic reticulum, rich in cytochrome P450 enzymes.
Description: Metabolic stability in CD1 mouse liver microsomes assessed as compound remaining after 1 hr
Data set [6] in a line: in vitro. The conditions noted are these: human, liver microsomes.
Description: Metabolic stability in human liver microsomes assessed as compound remaining after 1 hr
Data set [7] in a line: Thermodynamic solubility in aqueous buffer at pH 1 at 20 degC by HPLC. It counts as physicochemical. The conditions noted are these: aqueous buffer.
Data set [8] in a line: AUC (0-infinity) in CD1 mouse lung at 40 mg/kg, po administered as single dose. The data set is classed as ADME, organism-based. Also noted: time infinity, dose 40 mg/kg, route oral.
Data set [9] is described as follows: Cmax in CD1 mouse lung at 40 mg/kg, po administered as single dose. It counts as ADME, organism-based. On the set-up: dose 40 mg/kg, route oral.
Data set [10] in a line: Thermodynamic solubility in aqueous buffer at pH 7.4 at 20 degC by HPLC. It counts as physicochemical.
A short description of data set [11]: AUC (0-infinity) in CD1 mouse plasma at 40 mg/kg, po administered as single dose. The data set is classed as ADME, organism-based. Also noted: time infinity, dose 40 mg/kg, route oral.
Data set [12] can be described thus: Cmax in CD1 mouse plasma at 40 mg/kg, po administered as single dose. It counts as ADME, organism-based. Also noted: dose 40 mg/kg, route oral.
The nature of data set [13]: Half life in CD1 mouse plasma at 40 mg/kg, po administered as single dose. The data set is classed as ADME, organism-based. Also noted: dose 40 mg/kg, route oral.
A short description of data set [14]: Half life in CD1 mouse lung at 40 mg/kg, po administered as single dose. It counts as ADME, organism-based. On the set-up: dose 40 mg/kg, route oral.
Data set [15] is described as follows: Cmax in Sprague-Dawley rat at 5 mg/kg, iv administered as single dose. It counts as ADME, organism-based. On the set-up: dose 5 mg/kg, route intravenous. The following applies: in vivo.
Data set [16] in a line: AUClast in Sprague-Dawley rat at 20 mg/kg, po administered as single dose. It counts as ADME, organism-based. Also noted: time 0 - last, dose 20 mg/kg, route oral. The following applies: plasma.
The nature of data set [17]: Cmax in Sprague-Dawley rat at 20 mg/kg, po administered as single dose. It counts as ADME, organism-based. On the set-up: dose 20 mg/kg, route oral. The following applies: in vivo.
The nature of data set [18]: Tmax in Sprague-Dawley rat at 5 mg/kg, iv administered as single dose. The data set is classed as ADME, organism-based. Also noted: dose 5 mg/kg, route intravenous. The conditions noted are these: in vivo.
Data set [19] can be described thus: Tmax in Sprague-Dawley rat at 20 mg/kg, po administered as single dose. The data set is classed as ADME, organism-based. On the set-up: dose 20 mg/kg, route oral. The conditions noted are these: in vivo.
The nature of data set [20]: AUClast in Sprague-Dawley rat at 5 mg/kg, iv administered as single dose. Also noted: time 0 - last, dose 5 mg/kg, route intravenous. It counts as ADME, organism-based. The conditions noted are these: plasma.
A short description of data set [21]: Oral bioavailability in Sprague-Dawley rat at 20 mg/kg, po administered as single dose. The following applies: in vivo. It counts as ADME, organism-based.
Data set [22] can be described thus: Half life in Sprague-Dawley rat at 5 mg/kg, iv administered as single dose. On the set-up: dose 5 mg/kg, route intravenous. The data set is classed as ADME, organism-based. The conditions noted are these: in vivo.

A word on the solubility: it is how much of the substance goes into solution per volume. Read a high solubility as much dissolved substance. In general, amount remaining refers to the share of the starting amount still present when the sample was taken. A low value points to more turnover. For `O=[N+]([O-])c1cn2c(n1)OC[C@@H](OCc1cncc(-c3ccc(F)cc3)c1)C2`, the MIC in data set [1] is 7.7 µM (≈ 2.85 µg/mL); in [4], 0.31 µM (≈ 0.115 µg/mL). Besides, the values for the solubility in the data set “physchem [2]” and in the data set “physchem [3]” were 45 µg/mL (≈ 122 µM) and 41000 µg/mL (≈ 111000 µM), respectively. Further, the share remaining at 1 h came out at 39% in the data set “in vitro [5]” and 71% in the data set “in vitro [6]”.
In the case of `O=[N+]([O-])c1cn2c(n1)OC[C@@H](OCc1ncc(-c3ccc(OC(F)(F)F)cc3)cn1)C2`, the MIC in [1] is 1.9 µM (≈ 0.831 µg/mL); in [4] it was 0.11 µM (≈ 0.0481 µg/mL). The compound also returned a solubility in the data set “physchem [3]” of 5.1 µg/mL (≈ 11.7 µM). The results for the amount remaining at 1 h in the data set “in vitro [5]” and in the data set “in vitro [6]” were 87% and 92%, respectively.
For the compound `O=[N+]([O-])c1cn2c(n1)OC[C@@H](OCc1ccc(-c3ccc(F)nc3)cc1)C2`, the MIC was determined as 2.1 µM (≈ 0.778 µg/mL) in data set [1] and 0.095 µM (≈ 0.0352 µg/mL) in [4]. The solubility in the data set “physchem [2]” was 8 µg/mL (≈ 21.6 µM); in “physchem [3]”, 10 µg/mL (≈ 27 µM). Also, the fraction remaining at 1 h in the data set “in vitro [5]” was determined as 79%; in the data set “in vitro [6]”, 88%.
As a reminder, the solubility (thermodynamic) is solubility found after equilibrating the solid with the medium. Broadly, the AUC(0-inf) is total exposure, with the tail of the curve extrapolated. Low readings indicate low exposure, high ones high exposure. The Cmax is the highest concentration seen after dosing. The term half-life denotes the time in which the quantity being followed falls by half. Consider `O=[N+]([O-])c1cn2c(n1)OC[C@@H](OCc1ccc(-c3ccc(OC(F)(F)F)c(Cl)c3)nc1)C2`, for which the solubility (thermodynamic) in data set [7] was 17 µg/mL (≈ 36.1 µM); in data set [10] it was 0.19 µg/mL (≈ 0.404 µM). Besides, the AUC(0-inf) in data set [8] was found to be 284 µg·h/mL; in data set [11] it was 88 µg·h/mL. Also, the MIC was 1 µM (≈ 0.471 µg/mL) in data set [1] and 0.017 µM (≈ 0.008 µg/mL) in data set [4]. The Cmax in data set [9] was 10000 ng/mL; in data set [12] it was 2900 ng/mL. In the data set “physchem [3]”, the concentration in solution (solubility) was 39 µg/mL (≈ 82.8 µM). For the same compound, the share remaining at 1 h was 77% in the data set “in vitro [5]” and 87% in the data set “in vitro [6]”. The figures for the half-life in data set [13] and in data set [14] were 1320 min and 840 min, respectively.
For the compound `O=[N+]([O-])c1cn2c(n1)OC[C@@H](OCc1ccc(-c3ccc(F)cn3)cc1)C2`, the values for the MIC in data set [1] and in data set [4] were 1.3 µM (≈ 0.481 µg/mL) and 0.035 µM (≈ 0.013 µg/mL), respectively. Also, the concentration in solution in “physchem [3]” (solubility) came to 275 µg/mL (≈ 743 µM). Moreover, the share remaining at 1 h worked out at 61% in the data set “in vitro [5]” and 83% in “in vitro [6]”.
On to `O=[N+]([O-])c1cn2c(n1)OC[C@@H](OCc1ccc(-c3ccc(OC(F)(F)F)cc3)cc1)C2`, for which the solubility (thermodynamic) in [7] and in data set [10] was less than 0.1 µg/mL each time. In addition, the total exposure AUC(0-inf) in data set [8] was 218 µg·h/mL; in data set [11], 198 µg·h/mL. In addition, the Cmax in data set [9] came to 9000 ng/mL; in data set [12], 7400 ng/mL. For the same compound, the concentration in solution in the data set “physchem [3]” (solubility) was 1.1 µg/mL (≈ 2.53 µM). This compound also gave a half-life in data set [14] of 780 min.
For the compound `O=[N+]([O-])c1cn2c(n1)OC[C@@H](OCc1ccc(-c3ccc(F)cc3)nc1)C2`, the thermodynamic solubility in [7] is more than 93 µg/mL; in data set [10], 5.9 µg/mL (≈ 15.9 µM). Besides, the AUC(0-inf) was 136 µg·h/mL in data set [8] and 61 µg·h/mL in data set [11]. Moreover, the MIC in data set [1] worked out at 2.9 µM (≈ 1.07 µg/mL); in data set [4], 0.06 µM (≈ 0.0222 µg/mL). The Cmax in data set [9] is 11000 ng/mL; in [12], 5300 ng/mL. Besides, in “physchem [3]”, the concentration in solution (solubility) came to 1000 µg/mL (≈ 2700 µM). Also, the results for the share remaining at 1 h in the data set “in vitro [5]” and in the data set “in vitro [6]” were 80% and 88%, respectively. The half-life in [13] is 162 min; in data set [14], 168 min.
One may read the AUC(0-t) as exposure summed from dosing to a finite time, without extrapolation to infinity. Low values mean low exposure, high ones high exposure. One may read the Tmax as the time at which the peak concentration occurs. A word on the bioavailability: it is dose-corrected exposure relative to a reference, in per cent. Higher therefore signals good availability. `O=[N+]([O-])c1cn2c(n1)OC[C@@H](OCc1ccc(-c3ccc(OC(F)(F)F)cc3)cn1)C2`: the area under the curve AUC(0-inf) in [8] is 427 µg·h/mL; in [11], 418 µg·h/mL. Besides, the MIC turned out to be 3.7 µM (≈ 1.61 µg/mL) in data set [1] and 0.065 µM (≈ 0.0284 µg/mL) in [4]. In addition, the Cmax was determined as 8700 ng/mL in [15], 35000 ng/mL in data set [9], 16000 ng/mL in data set [17] and 26000 ng/mL in data set [12]. In addition, the AUC(0-t) in [16] came to 66700 ng·h/mL; in data set [20], 35900 ng·h/mL. In addition, the Tmax in [18] came out at 4.98 min; in data set [19], 6 h. Besides, the half-life was 324 min in [13], 492 min in data set [14] and more than 360 min in data set [22]. The bioavailability in [21] is 46%.
`O=[N+]([O-])c1cn2c(n1)OC[C@@H](OCc1ccnc(-c3ccc(OC(F)(F)F)cc3)c1)C2`: the results for the MIC in [1] and in [4] were 2.4 µM (≈ 1.05 µg/mL) and 0.035 µM (≈ 0.0153 µg/mL), respectively. In the data set “physchem [2]”, this compound returned a solubility of 3.9 µg/mL (≈ 8.94 µM). For the same compound, the share remaining at 1 h stood at 31% in “in vitro [5]” and 54% in “in vitro [6]”.
